≈ marks a conversion by molar mass, not a printed value. Where a name gives a salt, the structure may show the parent alone. Read-outs that look alike come from different tables or passages of the source.
Tests used:
[1] = acute toxicity, LD50 (mouse, oral); conditions: in vivo
From the text: The acute toxicity values [LD50 (mouse, oral)] for the following compounds of this invention were over 5 g/kg: […]

[2] = tested on: Staphylococcus aureus 209-P; experiment: MIC, standard agar dilution method, Staphylococcus aureus 209-P; assay type: cell-based; conditions: Mueller Hinton agar, 18 hours, 37° C.
Description: (§1) Minimal inhibitory concentration (MIC) was determined by the standard agar dilution method of the Japan Society of Chemotherapy.
(§2) Compounds were dissolved in appropriate solvents (sterilized water for sodium salts and acetone-water [1:1] for free acids) and serial two-fold dilutions were made. Sodium salt of Cefazolin was chosen as the control compound.
(§3) One-ml aliquots of each dilution were mixed with 9 ml of Mueller Hinton gar in petri-dishes to make agar plates containing the compound at serially diluted concentrations. After agar hardened, plates were put in an incubator at 37° C. for 1.5-2 hours with the lids slightly open to evaporate acetone off the plates.
(§4) Test organisms were grown for 18 hours at 37° C. in Trypticase Soy broth and diluted in saline to approximately 10^6 colony forming units per ml. A loopful of each cell suspension was applied on the agar plate mentioned above and the plates were incubated for 18 hours at 37° C. before MIC was determined.
(§5) The results are shown in Table 2, wherein the compound of Example 5 was selected and used in a form of free carboxylic acid as set forth in the Example 5, Item (a).

Escherichia coli NIHJ = experiment: MIC, standard agar dilution method, Escherichia coli NIHJ; assay type: cell-based
Description: as §1, §2, §3, §4, §5

[3] = tested on: Klebsielle pneumoniae EK-6; experiment: MIC, standard agar dilution method, Klebsielle pneumoniae EK-6; assay type: cell-based
Description: as §1, §2, §3, §4, §5

Proteus morganii EP-14 = experiment: MIC, standard agar dilution method, Proteus morganii EP-14; assay type: cell-based; conditions: Morganella morganii, EP14, Mueller Hinton agar, 18 hours, 37° C.
Description: as §1, §2, §3, §4, §5

[4] = tested on: Pseudomonas aeruginosa EP-172; experiment: MIC, standard agar dilution method, Pseudomonas aeruginosa EP-172; assay type: cell-based; conditions: EP172, Mueller Hinton agar, 18 hours, 37° C.
Description: as §1, §2, §3, §4, §5

[5] = tested on: Serratia marcescens ES-75; experiment: MIC, standard agar dilution method, Serratia marcescens ES-75; assay type: cell-based; conditions: ES75, Mueller Hinton agar, 18 hours, 37° C.
Description: as §1, §2, §3, §4, §5

Proteus bulgaris E-18 = experiment: MIC, standard agar dilution method, Proteus bulgaris E-18; assay type: cell-based; conditions: Mueller Hinton agar, 18 hours, 37° C.
Description: as §1, §2, §3, §4, §5

[6] = Escherichia coli NIHJ, Mueller Hinton agar, 18 hours, 37° C., read-out: MIC
[7] = Klebsielle pneumoniae EK-6, Mueller Hinton agar, 18 hours, 37° C., read-out: MIC

Structure (SMILES)	LD50 [1] [mg/kg]	MIC [2] [µg/mL]	MIC (Escherichia coli NIHJ; [6]) [µg/mL]	MIC [3, 7] [µg/mL]	MIC (Proteus morganii EP-14) [µg/mL]	MIC [4] [µg/mL]	MIC [5] [µg/mL]	MIC (Proteus bulgaris E-18) [µg/mL]	MIC (Escherichia coli NIHJ; Escherichia coli, 18 h) [µg/mL]	MIC ([3]; 18 h) [µg/mL]
CO[C@@]1(NC(=O)[C@H](NC(=O)c2coc3cc(O)c(O)cc3c2=O)c2ccc(O)cc2)C(=O)N2C(C(=O)O)=C(CSc3nnnn3CC(=O)O)CS[C@@H]21 [Example 16, 7β-[D-2-(6,7-Dihydroxychromone-3-carboxamido)-2-(4-hydroxyphenyl)acetamido]-7α-methoxy-3-1-carboxymethyl-5-tetrazolyl)thiomethyl-3-cephem-4-carboxylic acid disodium salt]	> 5000	–	–	–	–	–	–	–	–	–
CO[C@@]1(NC(=O)[C@H](NC(=O)c2coc3cc(O)c(O)cc3c2=O)c2ccc(O)cc2)C(=O)N2C(C(=O)O)=C(CSc3nnc(CC(=O)O)s3)CS[C@@H]21 [Example 28, 7β-[D-2-(6,7-Dihydroxychromone-3-carboxamido)-2-(4-hydroxyphenyl)acetamido]-7α-methoxy-3-[5-carboxymethyl-2-(1,3,4-thiadiazolyl)]thiomethyl-3-cephem-4-carboxylic acid]	–	3.13 (≈ 4.06 µM)	3.13 (≈ 4.06 µM)	≤ 0.1	12.5 (≈ 16.2 µM)	0.8 (≈ 1.04 µM)	0.4 (≈ 0.518 µM)	1.56 (≈ 2.02 µM)	–	–
COC(=O)Cn1nnnc1SCC1=C(C(=O)O)N2C(=O)[C@](NC(=O)[C@H](NC(=O)c3coc4cc(OC(=O)OCC(Cl)(Cl)Cl)c(OC(=O)OCC(Cl)(Cl)Cl)cc4c3=O)c3ccc(O)cc3)(OC)[C@H]2SC1 [Example 26, 7β-[D-2-(6,7-Bis(2,2,2-trichloroethoxycarbonyloxy)chromone-3-carboxamido)-2-(4-hydroxyphenyl)acetamido]-7α-methoxy-3-(1-methoxycarbonylmethyl-5-tetrazolyl)thiomethyl-3-cephem-4-carboxylic acid]	–	12.5 (≈ 11.2 µM)	6.25 (≈ 5.58 µM)	≤ 0.1	6.25 (≈ 5.58 µM)	1.56 (≈ 1.39 µM)	0.2 (≈ 0.178 µM)	0.8 (≈ 0.714 µM)	–	–
CO[C@@]1(NC(=O)[C@H](NC(=O)c2coc3cc(OC(=O)OCC(Cl)(Cl)Cl)c(OC(=O)OCC(Cl)(Cl)Cl)cc3c2=O)c2ccccc2)C(=O)N2C(C(=O)O)=C(COC(C)=O)CS[C@@H]21 [Example 24, 7β-[D-2-(6,7-Bis(2,2,2-trichloroethoxy-carbonyloxy)chromon-3-carboxamido)2-phenylacetamido]-7α-methoxy-3-acetoxymethyl-3-cephem-4-carboxylic acid]	–	6.25 (≈ 6.31 µM)	12.5 (≈ 12.6 µM)	≤ 0.1	25 (≈ 25.2 µM)	1.56 (≈ 1.58 µM)	0.8 (≈ 0.808 µM)	3.13 (≈ 3.16 µM)	–	–
CCOC(=O)Oc1cc2occ(C(=O)N[C@@H](C(=O)N[C@]3(OC)C(=O)N4C(C(=O)O)=C(CSc5nnnn5CC(=O)O)CS[C@@H]43)c3ccc(O)cc3)c(=O)c2cc1OC(=O)OCC [Example 27, 7β-[D-2-(6,7-Bis(ethoxycarbonyloxy)chromone-3-carboxamido)-2-(4-hydroxyphenyl)acetamido]-7α-methoxy-3-(1-carboxymethyl-5-tetrazolyl)thiomethyl-3-cephem-4-carboxylic acid]	–	3.13 (≈ 3.48 µM)	3.13 (≈ 3.48 µM)	≤ 0.1	6.25 (≈ 6.95 µM)	0.8 (≈ 0.889 µM)	0.2 (≈ 0.222 µM)	0.8 (≈ 0.889 µM)	–	–
CCOC(=O)Oc1cc2occ(C(=O)N[C@@H](C(=O)N[C@]3(OC)C(=O)N4C(C(=O)O)=C(CSc5nnnn5CC(=O)OC)CS[C@@H]43)c3ccc(O)cc3)c(=O)c2cc1OC(=O)OCC [Example 20, 7β-[D-2-(6,7-Bis(ethoxycarbonyloxy)chromone-3-carboxamido)-2-(4-hydroxyphenyl)acetamido]-7α-methoxy-3-(1-methoxycarbonylmethyl-5-tetrazolyl)thiomethyl-3-cephem-4-carboxylic acid]	> 5000	6.25 (≈ 6.84 µM)	3.13 (≈ 3.43 µM)	≤ 0.1	6.25 (≈ 6.84 µM)	0.4 (≈ 0.438 µM)	0.2 (≈ 0.219 µM)	0.8 (≈ 0.875 µM)	–	–
CO[C@@]1(NC(=O)[C@H](NC(=O)c2coc3cc(O)c(O)cc3c2=O)c2ccc(O)cc2)C(=O)N2C(C(=O)O)=C(CSc3nnnn3C)CS[C@@H]21 [Example 3, 7β-[D-2-(6,7-Dihydroxychromone-3-carboxamido)-2-(4-hydroxyphenyl)acetamido]-7α-methoxy-3-(1-methyl-5-tetrazolyl)thiomethyl-3-cephem-4-carboxylic acid]	> 5000	3.13 (≈ 4.4 µM)	0.4 (≈ 0.562 µM)	≤ 0.1	3.13 (≈ 4.4 µM)	0.8 (≈ 1.12 µM)	≤ 0.1	0.8 (≈ 1.12 µM)	–	–
CO[C@@]1(NC(=O)[C@H](NC(=O)c2coc3c(O)c(O)ccc3c2=O)c2ccccc2)C(=O)N2C(C(=O)O)=C(COC(C)=O)CS[C@@H]21 [Example 7, 7β-[D-2-(7,8-Dihydroxychromone-3-carboxyamido)-2-phenylacetamido]-7α-methoxy-3-acetoxymethyl-3-cephem-4-carboxylic acid]	–	6.25 (≈ 9.77 µM)	3.13 (≈ 4.89 µM)	0.2 (≈ 0.313 µM)	100 (≈ 156 µM)	3.13 (≈ 4.89 µM)	12.5 (≈ 19.5 µM)	50 (≈ 78.2 µM)	–	–
CO[C@@]1(NC(=O)[C@H](NC(=O)c2coc3cc(O)c(O)cc3c2=O)c2ccc(O)cc2)C(=O)N2C(C(=O)O)=C(CSc3nncs3)CS[C@@H]21 [Example 33, 7β-[D-2-(6,7-Dihydroxychromone-3-carboxamido)-2-(4-hydroxyphenyl)acetamido]-7α-methoxy-3-[2-(1,3,4-thiadiazolyl)]thiomethyl-3-cephem-4-carboxylic acid]	–	1.56 (≈ 2.19 µM)	6.25 (≈ 8.76 µM)	≤ 0.1	25 (≈ 35 µM)	0.4 (≈ 0.56 µM)	0.2 (≈ 0.28 µM)	1.56 (≈ 2.19 µM)	–	–
CO[C@@]1(NC(=O)[C@H](NC(=O)c2coc3cc(O)c(O)cc3c2=O)c2ccc(O)cc2)C(=O)N2C(C(=O)O)=C(CSc3nnc(C)s3)CS[C@@H]21 [7β-[D-2-(6,7-Dihydroxychromone-3-carboxamido)-2-(4-hydroxyphenyl)acetamido]-7α-methoxy-3-[5-methyl-2-(1,3,4-thiadiazolyl)]thiomethyl-3-cephem-4-carboxylic acid]	> 5000	–	–	–	–	–	–	–	–	–
CO[C@@]1(NC(=O)[C@H](NC(=O)c2coc3cc(OC(C)=O)c(OC(C)=O)cc3c2=O)c2ccc(O)cc2)C(=O)N2C(C(=O)O)=C(CSc3nnnn3C)CS[C@@H]21 [Example 1, 7β-[D-2-(6,7-Diacetoxychromone-3-carboxamido)-2-(4-hydroxyphenyl)acetamido]-7α-methoxy-3-(1-methyl-5-tetrazolyl)thiomethyl-3-cephem-4-carboxylic acid]	–	1.56 (≈ 1.96 µM)	0.4 (≈ 0.503 µM)	≤ 0.1	3.13 (≈ 3.93 µM)	0.4 (≈ 0.503 µM)	≤ 0.1	0.4 (≈ 0.503 µM)	–	–
CO[C@@]1(NC(=O)[C@H](NC(=O)c2coc3cc(OC(=O)OCC(Cl)(Cl)Cl)c(OC(=O)OCC(Cl)(Cl)Cl)cc3c2=O)c2ccc(O)cc2)C(=O)N2C(C(=O)O)=C(COC(C)=O)CS[C@@H]21 [Example 25, 7β-[D-2-(6,7-Bis(2,2,2-trichloroethoxycarbonyloxy)chromone-3-carboxamido)-2-(4-hydroxyphenyl)acetamido]-7α-methoxy-3-acetoxymethyl-3-cephem-4-carboxylic acid]	–	3.13 (≈ 3.11 µM)	12.5 (≈ 12.4 µM)	≤ 0.1	25 (≈ 24.8 µM)	0.8 (≈ 0.795 µM)	0.8 (≈ 0.795 µM)	3.13 (≈ 3.11 µM)	–	–
Cc1nnc(SCC2=C(C(=O)O)N3C(=O)[C@@H](NC(=O)Cn4cnnn4)[C@H]3SC2)s1 [Control, Sodium salt of Cefazolin, reference compound]	–	0.4	–	–	> 100	> 100	> 100	> 3200	1.56	1.56

— US4415567A, “7α-Methoxycephalosporin derivatives, and antibacterial drugs containing the same” (Eisai Co., Ltd., priority 1980, dated 1983)
